Experimental data published in article PMC3118852 (Chemical research in toxicology, 2011).

Assays:
paraoxonase 1 = conditions: cited from earlier work
CBDP-phosphonylated BChE = CBDP-phosphonylated BChE (Homo sapiens, UniProt P06276); format: biochemical; conditions: pH 8
rat brain AChE = conditions: pH 7.4; cited from earlier work
recombinant human AChE = conditions: pH 8; cited from earlier work
[1] = pH 8
human BChE [2] = target: T1, human BChE (Homo sapiens, UniProt P06276); conditions: pH 8; cited from earlier work
T1 sequence (P06276 29-602): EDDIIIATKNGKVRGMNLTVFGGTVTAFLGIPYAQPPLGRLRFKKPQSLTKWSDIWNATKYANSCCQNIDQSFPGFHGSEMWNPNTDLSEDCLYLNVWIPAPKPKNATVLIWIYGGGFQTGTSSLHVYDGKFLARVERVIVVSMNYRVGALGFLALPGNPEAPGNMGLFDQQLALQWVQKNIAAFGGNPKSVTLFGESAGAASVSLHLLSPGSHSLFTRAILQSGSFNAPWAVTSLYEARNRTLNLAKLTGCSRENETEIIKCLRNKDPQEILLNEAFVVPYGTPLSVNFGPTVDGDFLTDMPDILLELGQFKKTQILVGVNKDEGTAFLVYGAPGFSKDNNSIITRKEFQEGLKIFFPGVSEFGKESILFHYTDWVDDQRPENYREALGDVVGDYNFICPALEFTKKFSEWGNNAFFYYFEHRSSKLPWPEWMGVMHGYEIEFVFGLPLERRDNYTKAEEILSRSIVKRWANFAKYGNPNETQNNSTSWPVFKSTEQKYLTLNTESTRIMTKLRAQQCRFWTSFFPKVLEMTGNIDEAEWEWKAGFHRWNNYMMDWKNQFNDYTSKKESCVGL

CBDP-phosphonylated AChE = CBDP-phosphonylated AChE (Homo sapiens, UniProt P22303); format: biochemical; conditions: pH 8
Sequence of CBDP-phosphonylated AChE (P22303 32-614): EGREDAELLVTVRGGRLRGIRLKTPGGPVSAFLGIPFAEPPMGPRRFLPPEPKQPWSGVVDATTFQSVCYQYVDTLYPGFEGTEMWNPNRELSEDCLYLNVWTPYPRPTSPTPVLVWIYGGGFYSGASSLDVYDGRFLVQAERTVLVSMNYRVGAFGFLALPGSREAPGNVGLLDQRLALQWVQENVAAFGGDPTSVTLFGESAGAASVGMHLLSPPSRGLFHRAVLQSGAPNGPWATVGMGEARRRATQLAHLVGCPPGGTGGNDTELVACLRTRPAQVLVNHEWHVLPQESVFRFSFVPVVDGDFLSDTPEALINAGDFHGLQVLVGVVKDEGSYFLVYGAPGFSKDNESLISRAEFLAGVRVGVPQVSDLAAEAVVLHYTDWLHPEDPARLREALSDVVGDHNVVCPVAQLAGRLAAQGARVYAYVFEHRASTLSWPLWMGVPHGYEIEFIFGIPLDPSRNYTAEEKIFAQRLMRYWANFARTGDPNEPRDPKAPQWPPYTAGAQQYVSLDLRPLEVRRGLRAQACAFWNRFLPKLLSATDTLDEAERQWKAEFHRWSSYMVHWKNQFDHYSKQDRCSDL

human AChE = human AChE (Homo sapiens, UniProt P22303); format: biochemical
Sequence of human AChE (P22303 32-614): as above

human BChE [3] = target: T1, human BChE
BChE = conditions: cited from earlier work

Sequence of CBDP-phosphonylated BChE (P06276 29-602): as the sequence (P06276 29-602) above

Row | Molecule | reaction with paraoxonase 1 (paraoxonase 1) | time to loss of reactivatibility (aging) following inhibition (CBDP-phosphonylated BChE) | bimolecular rate constant of inhibition (rat brain AChE) [M⁻¹ s⁻¹] | bimolecular rate constant of inhibition (recombinant human AChE) [M⁻¹ s⁻¹] | hydrolysis rate [1] [min⁻¹] | bimolecular rate constant of inhibition (human BChE [2]) [M⁻¹ s⁻¹] | time to loss of reactivatibility (aging) following inhibition (CBDP-phosphonylated AChE) | K'I, dissociation constant of the Michaelis complex, AChE form E′ (human AChE) [µM] | kobs, fast phase of inhibition (independent of CBDP concentration) (human AChE) [min⁻¹] | Ki (human AChE; read-out: KI, dissociation constant of the Michaelis complex, AChE form E) [nM] | K'I, dissociation constant of the Michaelis complex, BChE form E′ (human BChE [3]) [nM] | ki values for BChE (both forms) (human BChE [3]) | slow phase reactivity of hBChE (form E′) relative to hAChE (form E′) (human BChE [3]) [fold] | kp, phosphorylation rate constant, BChE form E (kp=ki.KI) (human BChE [3]; human) [min⁻¹] | Ki (human BChE [3]; read-out: KI, dissociation constant of the Michaelis complex, BChE form E) [nM] | ki, reactivity with BChE (BChE) [M⁻¹ s⁻¹]
1 | Cc1ccccc1OP1(=O)OCc2ccccc2O1 (centres unmarked) [CBDP, 2-(o-cresyl)-4H-1,3,2-benzodioxaphosphoran-2-one] | does not react | less than 15 s | 18.3 | 35 | 0.0126 | 330 | less than 15 s | > 5.5 | 0.37 ± 0.15 | < 100 | > 10 | 10^7–10^8 M^−1 min^−1 | 235±110 | > 1.5 | > 10 | 
2 | CCOP(=O)(OCC)Oc1cc(C)nc(C(C)C)n1 [diazoxon] |  |  |  |  |  |  |  |  |  |  |  |  |  |  |  | 1.28e+06
3 | chlorpyrifos-oxon |  |  |  |  |  |  |  |  |  |  |  |  |  |  |  | 2.83e+07
